Measured values taken from EP3146981A1, “COVALENTLY ATTACHED AZOBENZENE SWITCHES AND THEIR USES FOR THE OPTICAL CONTROL OF TARGET PROTEINS” (Ludwig-Maximilians-Universität München, priority 2015, dated 2017).
Read-outs that look alike come from different tables or passages of the source. Values belong to the molecule of their own block, whether it stands above or below them.

Columns and labels:
[1] = tested on: SNAP-mGluR2 in hippocampal neurons; assay: Whole cell patch-clamp of hippocampal neurons, excitability; type: cell-based, mice
Description: Dissociated hippocampal neuron cultures were prepared from postnatal P0 or P1 mice on 12 mm glass coverslips as previously described (Levitz et al., 2013). Neurons were transfected with SNAP-mGluR2 (1.5 µg/well) and tdTomato (0.25 µg/well as a transfection marker) using the calcium phosphate method at DIV9. Whole cell patch clamp experiments were performed 3-6 days after transfection (DIV 12-15). Labeling was performed using the same protocol as HEK cells except BGAG was diluted in extracellular recording solution containing (in mM): 138 NaCl, 1.5 KCl, 1.2 MgCl2, 2.5 CaCl2, 10 glucose, 5 HEPES, pH 7.4. Glass pipettes of resistance 4-8 MΩ were filled with an intracellular solution containing (in mM): 140 K-gluconate, 10 NaCl, 5 EGTA, 2 MgCl2, 1 CaCl2, 10 HEPES, 2 MgATP and 0.3 Na2GTP, pH 7.2. Autaptic neurons were voltage clamped at -60 mV and a 2-3 ms voltage step to +20 mV was used to evoke a spike followed (~3-5 ms later) by an EPSC. Stimulation was performed once every 12 s to prevent rundown.
We first expressed SNAP-mGluR2-GFP in dissociated hippocampal neurons and labeled with BG-Alexa-647 to determine if SNAP-BG conjugation could occur efficiently in neuronal cultures, which are considerably denser than HEK 293T cell cultures. […]

[2] = Stability of the labeling solution in aqueous buffer (readout: photoactivation of SNAG-mGluR2); type: physicochemical; details: one week following dilution in aqueous buffer at room temperature
SNAP-tag = assay: In vitro SNAP-tag labeling, SDS page
Description: Scale bars represents 50 µM (top) and 10 µM (bottom). • Figure 9: SDS page after in vitro SNAP-tag labeling (New England Biolabs, #P9312S) with BGAG12 and D-MAG. Reductive (dithiothreitol, DTT), oxidative (oxidized glutathione, GSSG) or neutral conditions (no additive) were employed according to the manufacturer's instructions.

wild type mGluR2 = wild type mGluR2 (Rattus norvegicus, UniProt P31421); details: cells expressing wild type mGluR2 (no SNAP tag) incubated with BGAG12
Sequence of wild type mGluR2 (P31421 19-872): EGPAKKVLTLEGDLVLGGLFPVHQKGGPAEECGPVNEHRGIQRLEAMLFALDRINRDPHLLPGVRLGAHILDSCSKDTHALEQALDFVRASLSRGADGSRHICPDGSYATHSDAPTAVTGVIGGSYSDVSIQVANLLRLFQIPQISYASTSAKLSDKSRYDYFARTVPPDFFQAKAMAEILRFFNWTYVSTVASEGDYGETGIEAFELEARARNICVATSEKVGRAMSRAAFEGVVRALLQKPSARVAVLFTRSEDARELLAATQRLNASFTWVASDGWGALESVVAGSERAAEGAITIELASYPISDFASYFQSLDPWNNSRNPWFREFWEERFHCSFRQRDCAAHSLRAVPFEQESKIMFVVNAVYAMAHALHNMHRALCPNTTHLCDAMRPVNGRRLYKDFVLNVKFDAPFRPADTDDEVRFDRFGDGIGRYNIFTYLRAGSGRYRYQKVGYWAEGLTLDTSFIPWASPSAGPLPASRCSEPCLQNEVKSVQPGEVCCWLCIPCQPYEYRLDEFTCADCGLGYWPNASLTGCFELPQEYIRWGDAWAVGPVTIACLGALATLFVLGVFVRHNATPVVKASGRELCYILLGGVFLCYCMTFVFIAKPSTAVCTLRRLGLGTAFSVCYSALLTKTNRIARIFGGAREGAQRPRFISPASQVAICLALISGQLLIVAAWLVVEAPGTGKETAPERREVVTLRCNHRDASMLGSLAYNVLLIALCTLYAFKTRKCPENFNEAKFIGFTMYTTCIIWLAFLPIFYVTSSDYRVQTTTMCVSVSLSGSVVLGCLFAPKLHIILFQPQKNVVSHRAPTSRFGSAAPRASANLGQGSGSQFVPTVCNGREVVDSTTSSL

[3] = reductive (DTT), oxidative (GSSG) or neutral conditions

light responses (wild type mGluR2): no light responses
Molecule: Nc1nc(OCc2ccc(CNC(=O)CCc3cn(CCOCCOCCOCCOCCOCCOCCOCCOCCOCCOCCOCCOCCC(=O)NCC(=O)Nc4ccc(/N=N/c5ccc(NC(=O)CCC[C@@H](C[C@H](N)C(=O)O)C(=O)O)cc5)cc4)nn3)cc2)c2nc[nH]c2n1 [BGAG12, (2S,4S)-2-Amino-4-(4-((4-((E)-(4-(1-(4-(3-((4-(((2-amino-9H-purin-6-yl)oxy)methyl)benzyl)amino)-3-oxopropyl)-1H-1,2,3-triazol-1-yl)-39-oxo-3,6,9,12,15,18,21,24,27,30,33,36-dodecaoxa-40-azadotetracontan-42-amido)phenyl)diazenyl)phenyl)amino)-4-oxobutyl)pentanedioic acid]
membrane hyperpolarization ([1]; illumination at 380 nm, reversed at 500 nm): 2-8 mV | effect of light-induced hyperpolarization on firing ([1]; neurons at depolarized potentials that induced firing): sufficient to inhibit the action potentials | efficacy of optical activation on reuse of the labeling solution [2]: without a decline in efficacy of optical activation | reaction with SNAP-tag (SNAP-tag; [3]): reacts with SNAP-tag under each condition | photocurrents (SNAP-mGluR2; 100 nM labeling for 45 minutes): photocurrents were still observed | Light responses relative to the responses to saturating glutamate (SNAP-mGluR2; 10 µM for 45 minutes at 37 °C, washed, 380 nm, n=10 cells): 59.3 ± 2.8% | concentration showing optimal labeling (SNAP-mGluR2; 45 minute incubation): ≥ 1 µM | lowest concentration at which photocurrents were observed (SNAP-mGluR2; overnight labeling): 10 nM | photocurrents (SNAP-mGluR2; overnight labeling at 100 nM, versus 45 minutes): increased

Molecule: COCCOCCOCCOCCOCCOCCOCCOCCOCCOCCOCCOCCC(=O)NCC(=O)Nc1ccc(/N=N/c2ccc(NC(=O)CCC[C@@H](C[C@H](N)C(=O)O)C(=O)O)cc2)cc1 [AG12, (2S,4S)-2-Amino-4-(4-oxo-4-((4-((E)-(4-(38-oxo-2,5,8,11,14,17,20,23,26,29,32,35-dodecaoxa-39-azahentetracontan-41-amido)phenyl)diazenyl)phenyl)amino)butyl)-pentanedioic acid]
photoagonism of SNAP-mGluR2, directionality (SNAP-mGluR2; PCL version where the BG group was omitted): same directionality as BGAG12

Molecule: D-Maleimide-Azobenzene Glutamate [D-MAG]
reaction with SNAP-tag (SNAP-tag; [3]): reacts only under oxidative and neutral conditions | reaction with SNAP-tag (SNAP-tag; reductive conditions (DTT)): unreactive towards the SNAP-tag under reductive conditions

Molecule: Nc1nc(OCc2ccc(CNC(=O)CCC(=O)N3Cc4ccccc4-c4c(nnn4CCOCCOCCOCCOCCOCCOCCOCCOCCOCCOCCOCCOCCC(=O)NCCNc4ccc(/N=N/c5ccc(NC(=O)CCC[C@@H](C[C@H](N)C(=O)O)C(=O)O)cc5)cc4)-c4ccccc43)cc2)c2nc[nH]c2n1 [BGAG12(460), (2S,4S)-2-amino-4-(4-((4-((E)-(4-((1-(8-(4-((4-(((2-amino-9H-purin-6-yl)oxy)methyl)-benzyl)amino)-4-oxobutanoyl)-8,9-dihydro-1H-dibenzo[b,f][1,2,3]triazolo[4,5-d]azo-cin-1-yl)-39-oxo-3,6,9,12,15,18,21,24,27,30,33,36-dodecaoxa-40-azadotetra-contan-42-yl)amino)phenyl)diazenyl)phenyl)amino)-4-oxobutyl)pentanedioic acid]
Relaxation following illumination (SNAP-mGluR2; in the dark after blue light): rapidly in the dark | photoactivation relative to saturating glutamate (SNAP-mGluR2; labeling with 10 µM, blue light (420-470 nm bandpass), n=18 cells): 34.9 ± 4.2%
